Laboratory results as given in patent publication US20250123297A1, “Supermere Nanoparticles and Methods of Isolation and Use Thereof” (Vanderbilt University, priority 2021, published 2025).

Key:
Hela cells = assay: Inhibition of cellular supermere uptake by uptake inhibitors; type: cell-based; conditions: 30 min pre-incubation with inhibitor, labeled supermeres 24 h, 100 nM bafilomycin A
Procedure: (§1) For inhibitor treatment before supermere uptake, MDA-MB-231 cells were seeded at 20,000 cells per well or Hela cells at 25,000 cells per well on a 35-mm dish (P35G-0.170-14-C, MatTek Corporation) in DMEM culture media. Twenty-four hours later, cells were pre-incubated with the inhibitors in serum free DMEM media for 30 min. The following inhibitors were used: 100 nM bafilomycin A (Sigma, SML1661-. 1ML), 20 μM dynasore (Sigma, D7693-5 MG), 25 μM CK666 (Sigma, SML0006), 5 μM cytochalasin D (Sigma, C2618-200 ul). The Alexa Fluor 647-labeled supermeres (40 μg/ml) were added to the cells for 24 h in the presence of indicated inhibitors. […] Brightfield (30 ms exposure time) and fluorescence (640 Far Red, 10% laser power, 100 ms exposure time) images were taken of 10 or more fields of view, each with several cells per field. Three z-slices 1 μm apart were taken of each fluorescent field and the brightest slice was analyzed.
(§2) Brightfield images were used to identify cell boundaries and an ROI was drawn manually around each cell in each field of view. These region of interests (ROIs) were then opened on the fluorescent image and the mean fluorescence intensity of each ROI (cell) was measured. For each field of view, a background ROI was drawn in a region with no cells, and this background value was subtracted from each cell fluorescence mean in the field of view. […]

MDA-MB-231 cells = assay: as above; type: cell-based, human; conditions: 30 min pre-incubation with inhibitor, labeled supermeres 24 h, 100 nM bafilomycin A
Procedure: as §1, §2

Compound: CO/C1=C\C(C)=C\[C@@H](C)[C@@H](O)[C@@H](C)C/C(C)=C/C=C/[C@H](OC)[C@@H]([C@@H](C)[C@@H](O)[C@H](C)[C@@]2(O)C[C@@H](O)[C@H](C)[C@@H](C(C)C)O2)OC1=O [bafilomycin A]
- inhibition of supermere internalization (Hela cells): greatest inhibition of supermere internalization
- inhibition of supermere internalization (MDA-MB-231 cells): greatest inhibition of supermere internalization
